Measurements: PubChem BioAssay (NCI)
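Assay format: 96-well plates, 48-hour exposure. At the TGI there is no net growth.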

How the values were obtained:
Experiment in all cases: NCI-60 cell line screen, 48 h
A498 renal = tested on: A498 renal
BT-549 breast = tested on: BT-549 breast
CCRF-CEM leukemia = tested on: CCRF-CEM leukemia
COLO 205 colon = tested on: COLO 205 colon
HOP-62 NSCLC = tested on: HOP-62 NSCLC
HS 578T breast = tested on: HS 578T breast
KM12 colon = tested on: KM12 colon
MCF7 breast = tested on: MCF7 breast
MDA-MB-435 = tested on: MDA-MB-435
NCI-H226 lung = tested on: NCI-H226 lung
OVCAR-4 ovarian = tested on: OVCAR-4 ovarian
OVCAR-8 ovarian = tested on: OVCAR-8 ovarian
SF-268 CNS = tested on: SF-268 CNS
SK-OV-3 ovarian = tested on: SK-OV-3 ovarian
SNB-19 CNS = tested on: SNB-19 CNS
SNB-75 CNS = tested on: SNB-75 CNS
CAKI-1 renal = tested on: CAKI-1 renal

Structure (SMILES)	TGI (A498 renal) [µM]	TGI (BT-549 breast) [µM]	TGI (CCRF-CEM leukemia) [µM]	TGI (COLO 205 colon) [µM]	TGI (HOP-62 NSCLC) [µM]	TGI (HS 578T breast) [µM]	TGI (KM12 colon) [µM]	TGI (MCF7 breast) [µM]	TGI (MDA-MB-435) [µM]	TGI (NCI-H226 lung) [µM]	TGI (OVCAR-4 ovarian) [µM]	TGI (OVCAR-8 ovarian) [µM]	TGI (SF-268 CNS) [µM]	TGI (SK-OV-3 ovarian) [µM]	TGI (SNB-19 CNS) [µM]	TGI (SNB-75 CNS) [µM]	TGI (CAKI-1 renal) [µM]
CC1(C)CCC[C@@]2(C)C1C(=O)[C@@H]1O[C@]1(C)[C@@H]2CO (stereo partly drawn)	> 100	43.6	> 100	85.1	> 100	> 100	> 100	> 100	> 100	> 100	> 100	> 100	> 100	> 100	> 100	79	–
O=C(NCCNCCNC(=O)C(F)(F)F)C(F)(F)F	–	> 100	> 100	> 100	> 100	> 100	> 100	> 100	> 100	> 100	> 100	> 100	> 100	> 100	> 100	–	> 100
COC(=O)c1nc(-c2nc(CCNC(=O)OC(C)(C)C)sc2Cl)sc1Cl	> 100	> 100	> 100	> 100	> 100	> 100	> 100	> 100	> 100	> 100	–	> 100	> 100	> 100	> 100	> 100	–
O=C1CCCCCC1CC(Sc1ccccc1)Sc1ccccc1 (stereo not drawn)	> 100	–	> 100	> 100	> 100	> 100	> 100	> 100	> 100	> 100	> 100	> 100	> 100	> 100	> 100	> 100	> 100
CC1(C)CC(=O)c2c(nc(SSc3nc4c(c(-c5ccc(Br)cc5)c3C#N)C(=O)CC(C)(C)C4)c(C#N)c2-c2ccc(Br)cc2)C1	> 10	> 10	> 10	> 10	> 10	> 10	> 10	> 10	–	> 10	> 10	> 10	> 10	> 10	> 10	> 10	> 10
Cc1cc(=O)oc2c3c(ccc12)OC(c1ccc(Br)cc1)CC3=O (stereo not drawn)	–	11.4	9.11	30.5	21.8	38.2	33.1	12.7	16.9	38.2	> 100	33.7	32.1	30.3	20.5	18.6	43.8
CCCCCCCCCCCCCCCC(=O)OC(COC(C)=O)CO[P+](=O)O (stereo not drawn)	> 100	> 100	> 100	> 100	–	36.6	48.4	> 100	> 100	–	> 100	44.4	49.6	–	> 100	94	> 100
COc1ccc([C@]23CCN(S(=O)(=O)c4ccc(C)cc4)[C@H]2[C@H](CO)C2(CC3)OCC(C)(C)CO2)cc1OC	> 100	> 100	> 100	> 100	> 100	–	> 100	> 100	> 100	> 100	> 100	> 100	–	> 100	> 100	> 100	> 100
Cc1cc(=O)oc2c(C)c3oc(CBr)c(Br)c3cc12	–	> 100	> 100	> 100	> 100	> 100	83.8	> 100	> 100	> 100	88.1	97.7	78.6	> 100	> 100	70	31.6
CN(NC(=O)/C(=C\c1ccco1)NC(=O)c1ccccc1)c1cn[nH]c(=O)c1Cl	–	–	62.4	> 100	> 100	> 100	> 100	> 100	> 100	> 100	> 100	> 100	> 100	> 100	> 100	84.2	> 100
O=C1CC(c2ccc(Cl)cc2)C2(C(=O)NC(=O)NC2=O)C(c2ccc(Cl)cc2)C1 (stereo not drawn)	–	> 75	> 75	65.1	69	–	> 75	> 75	43.8	36.4	> 75	> 75	> 75	–	> 75	> 75	> 75
CC(=O)c1sc(Nc2ccc(Cl)c(Cl)c2)nc1C	> 100	> 100	–	> 100	> 100	–	> 100	> 100	> 100	> 100	> 100	> 100	> 100	> 100	> 100	> 100	> 100
CCOC(=O)C1=COC(C)(c2ccccc2)CC1=O (stereo not drawn)	> 100	> 100	–	> 100	> 100	> 100	> 100	> 100	> 100	–	> 100	> 100	> 100	> 100	> 100	> 100	> 100
CC1(C)N=C(C(=O)c2ccccc2)N(O)C1(O)c1ccccc1 (stereo not drawn)	–	–	> 100	> 100	> 100	> 100	> 100	> 100	> 100	> 100	> 100	> 100	> 100	> 100	> 100	> 100	> 100
C[C@H](CCC(=O)O)[C@H]1CC[C@H]2[C@@H]3[C@H](O)C[C@@H]4C[C@H](O)CC[C@]4(C)[C@H]3CC[C@]12C	> 100	> 100	> 100	45.7	> 100	–	> 100	> 100	> 100	78.3	> 100	37.7	> 100	–	> 100	57.4	> 100
